Data taken from US11446287B2, “Compounds and methods for EP300 or CBP modulation and indications therefor” (Opna Immuno-Oncology SA, priority 2019, dated 2022).

These molecules were tested against T1, Recombinant human CBP containing the bromodomain (CBP-BD (1043-1159)) (Homo sapiens, UniProt Q92793) (assay: CBP Alphascreen binding assay). Settings: read-out: CREBBP (CBP) IC50.
T1 construct: Recombinant human CBP bromodomain (CBP-BD (1043-1159)); made in house; host or cells: E. coli BL21-CodonPlus (DE3), modified pET vector
T1 sequence (Q92793 1081-1197): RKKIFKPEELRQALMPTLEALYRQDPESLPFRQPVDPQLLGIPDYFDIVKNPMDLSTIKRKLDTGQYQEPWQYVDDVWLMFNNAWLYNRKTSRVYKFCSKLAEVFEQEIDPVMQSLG
Description: CBP Alphascreen Binding Assay
Binding of compounds of Formula (I) with CBP was assessed using Alphascreen™ binding assay. The inhibition of the interaction between the CBP bromodomain and its acetylated target protein was measured quantitatively using recombinant CBP, an acetylated Histone 3 peptide and AlphaScreen™ technology. In absence of inhibition of the CBP protein bound to AlphaScreen™ nickel chelate acceptor beads can interact with the acetylated Histone 3 peptide which was immobilized by the AlphaScreen™ Streptavidin coated beads. This interaction brings donor and acceptor beads in proximity. The close proximity allows the singlet oxygen produced by laser excitation of the donor beads to reach the acceptor beads and generate a luminescence signal. CBP inhibitors result in a decrease in the proximity signal through an inhibition of the CBP—acetylated peptide interaction.
Recombinant human CBP containing the bromodomain (CBP-BD (1043-1159)) was prepared and purified as described in protein expression and purification session. The peptide was human Histone H345-64K56Ac-Biotin (Anaspec CA, USA).
Protocol for CBP assay: All components are prepared in buffer composed of 50 mM HEPES pH 7.5, 50 mM NaCl, 0.01% BSA, 0.01% Triton X-100, 2 mM DTT. Test compounds and DMSO vehicle are diluted 1:50 in buffer and a 4 μL volume was transferred to an Alphaplate. 5.5 μL of CBP protein and 5.5 μL of peptide are added to wells containing 4 μL of various concentrations of test compounds of Formula (I) or DMSO vehicle in an Alphaplate (PerkinElmer GA, USA) and incubated for 1 hour at room temperature. 5 μL donor and acceptor bead mixture was then added with final concentrations of 7.5 μg/ml. 60 minutes after bead addition, Alpha signal was read on the Envision spectrometer (λEx 680 nm, λEm 520-620 nm). Final concentrations of bromodomain proteins and peptide are as shown below.
All data were normalized to the mean of 16 high and 16 low control wells on each plate. A four parameter curve fit of the following formula was then applied: Y=A+((B−A)/(1+((C/x)^D))) Where ‘A’ is the minimum, ‘B’ is the maximum, ‘C’ is the IC50 and ‘D’ is the Hill slope. Protein Expression and Purification
Recombinant human CBP bromodomain (CBP-BD (1043-1159)) was expressed in E. coli cells (in a modified pET vector) with an N-terminal six-His tag and purified using a combination of both IMAC (Ni-affinity) and size exclusion chromatography steps.
Recombinant CBP protein was expressed using the E. coli strain BL21-CodonPlus (DE3) (Agilent Technologies CA, USA). Cells were grown in Terrific Broth (TB) media to an OD600 of 0.92 at 37° C. at which temperature was reduced to 20° C., protein was induced with 1.0 mM isopropyl-β-D-thiogalactopyranoside (“IPTG”) for 20 hours and harvested by centrifugation at 8500×g for 20 minutes. Cells were re-suspended in 0.1M K2PO4 pH 8.0, 250 mM NaCl, 10% Glycerol, 0.75% NP-40, 25 mM Imidazole, with 0.2 mg/ml Lysozyme, 0.2 mM phenylmethanesulfonyl fluoride (“PMSF”), […] (“BME”), 25 μg/ml DNase I, incubated on ice for 30 minutes and lysed with a cell disruptor (MicroFluidics MA, USA). The lysate was clarified by centrifugation at 20,000×g for 1 hour. The protein was captured with Ni-NTA resin (Life Technologies, USA). Contaminating proteins were washed off with 40 mM HEPES pH 7.5, 500 mM NaCl, 5% Glycerol, 5 mM Imidazole, and 5 mM BME. Following 3× wash steps, protein was eluted using 400 mM Imidazole in 40 mM HEPES pH 7.5, 400 mM NaCl, and 5 mM BME. The protein was further purified using a size exclusion column (26/600 Superdex 200, GE Biosciences NJ, USA) in 40 mM HEPES pH 7.5, 250 mM NaCl, 5 mM BME. The protein was aliquoted and flash-frozen in liquid Nitrogen.
In the case of Cc1ccc(S(=O)(=O)n2cc(-c3ccc(C(=O)O)cc3)c3cc(-c4c(C)noc4C)cnc32)cc1 [P-0006, 4-(5-(3,5-dimethylisoxazol-4-yl)-1-tosyl-1H-pyrrolo[2,3-b]pyridin-3-yl)benzoic acid], the IC50 is reported as 1000 to 8000 nM. With Cc1noc(C)c1-c1cnc2c(c1)c(-c1ccc(C(=O)O)cc1)cn2C(c1ccccn1)C1CC1 (stereo not shown) [P-0007, 4-(1-(cyclopropyl(pyridin-2-yl)methyl)-5-(3,5-dimethylisoxazol-4-yl)-1H-pyrrolo[2,3-b]pyridin-3-yl)benzoic acid] the IC50 was 0.1 to 1000 nM. Molecule Cc1noc(C)c1-c1cnc2c(c1)c(-c1ccc(C(=O)O)cc1)cn2C(c1ccccn1)C1CCC1 (stereo not shown) [P-0008, 4-(1-(cyclobutyl(pyridin-2-yl)methyl)-5-(3,5-dimethylisoxazol-4-yl)-1H-pyrrolo[2,3-b]pyridin-3-yl)benzoic acid] has an IC50 of 0.1 to 1000 nM. Work on Cc1noc(C)c1-c1cnc2c(CC3CCC3)cn(-c3ccc(C(=O)O)cn3)c2c1 [P-0009, 6-(3-(cyclobutylmethyl)-6-(3,5-dimethylisoxazol-4-yl)-1H-pyrrolo[3,2-b]pyridin-1-yl)nicotinic acid] yielded an IC50 of 0.1 to 1000 nM. For Cc1noc(C)c1-c1cnc2c(CC3CC3)cn(-c3ccc(C(=O)O)cn3)c2c1 [P-0010, 6-(3-(cyclopropylmethyl)-6-(3,5-dimethylisoxazol-4-yl)-1H-pyrrolo[3,2-b]pyridin-1-yl)nicotinic acid], the IC50 was 0.1 to 1000 nM. In the case of Cc1noc(C)c1-c1cnc2c(Cc3ccccn3)cn(-c3ccc(C(=O)O)cn3)c2c1 [P-0011, 6-(6-(3,5-dimethylisoxazol-4-yl)-3-(pyridin-2-ylmethyl)-1H-pyrrolo[3,2-b]pyridin-1-yl)nicotinic acid], the IC50 is reported as 1000 to 8000 nM. For Cc1noc(C)c1-c1cnc2c(c1)c(-c1ccc(C(=O)O)cc1)cn2C(c1ccccn1)c1ccccn1 [P-0012, 4-(1-(di(pyridin-2-yl)methyl)-5-(3,5-dimethylisoxazol-4-yl)-1H-pyrrolo[2,3-b]pyridin-3-yl)benzoic acid], the IC50 was 0.1 to 1000 nM. With Cc1noc(C)c1-c1cnc2c(c1)c(-c1ccc(C(=O)O)cc1F)cn2[C@@H](C)c1ccccn1 [P-0097, (S)-4-(5-(3,5-dimethylisoxazol-4-yl)-1-(1-(pyridin-2-yl)ethyl)-1H-pyrrolo[2,3-b]pyridin-3-yl)-3-fluorobenzoic acid] the IC50 was 0.1 to 1000 nM. For COc1ccc(C(=O)O)cc1-n1cc(CC2CCC2)c2ncc(-c3c(C)noc3C)cc21 [P-0098, 3-(3-(cyclobutylmethyl)-6-(3,5-dimethylisoxazol-4-yl)-1H-pyrrolo[3,2-b]pyridin-1-yl)-4-methoxybenzoic acid], the IC50 was 0.1 to 1000 nM. In the case of Cc1noc(C)c1-c1cnc2c(C(=O)c3cccc(OC(F)F)c3)cn(-c3ccnc(C(=O)O)c3)c2c1 [P-0099, 4-(3-(3-(difluoromethoxy)benzoyl)-6-(3,5-dimethylisoxazol-4-yl)-1H-pyrrolo[3,2-b]pyridin-1-yl)picolinic acid], the IC50 is reported as 0.1 to 1000 nM. With Cc1noc(C)c1-c1cnc2c(Cc3cccc(OC(F)F)c3)cn(-c3ccnc(C(=O)O)c3)c2c1 [P-0100, 4-(3-(3-(difluoromethoxy)benzyl)-6-(3,5-dimethylisoxazol-4-yl)-1H-pyrrolo[3,2-b]pyridin-1-yl)picolinic acid] the IC50 was 0.1 to 1000 nM. Cc1noc(C)c1-c1cnc2c(c1)c(-c1cccc(C(=O)O)c1)cn2CC1CC(F)(F)C1 [P-0101, 3-(1-((3,3-difluorocyclobutyl)methyl)-5-(3,5-dimethylisoxazol-4-yl)-1H-pyrrolo[2,3-b]pyridin-3-yl)benzoic acid] was tested, and the IC50 was 0.1 to 1000 nM. Work on Cc1noc(C)c1-c1cnc2c(c1)c(-c1cccc(C(=O)O)c1)cn2CC1(C)COC1 [P-0102, 3-(5-(3,5-dimethylisoxazol-4-yl)-1-((3-methyloxetan-3-yl)methyl)-1H-pyrrolo[2,3-b]pyridin-3-yl)benzoic acid] yielded an IC50 of 1000 to 8000 nM. COc1cc(C(=O)O)cc(OC)c1-c1cn([C@@H](C)c2ccccn2)c2ncc(-c3c(C)noc3C)cc12 [P-0103, (S)-4-(5-(3,5-dimethylisoxazol-4-yl)-1-(1-(pyridin-2-yl)ethyl)-1H-pyrrolo[2,3-b]pyridin-3-yl)-3,5-dimethoxybenzoic acid] was tested, and the IC50 was 0.1 to 1000 nM. Molecule Cc1noc(C)c1-c1cnc2c(CC3CCC3)cn(-c3ccc(C#N)c(C(=O)O)c3)c2c1 [P-0104, 2-cyano-5-(3-(cyclobutylmethyl)-6-(3,5-dimethylisoxazol-4-yl)-1H-pyrrolo[3,2-b]pyridin-1-yl)benzoic acid] has an IC50 of 0.1 to 1000 nM. Cc1noc(C)c1-c1cnc2c(CC3CCC3)cn(-c3ccc(C(=O)O)c(C#N)c3)c2c1 [P-0105, 2-cyano-4-(3-(cyclobutylmethyl)-6-(3,5-dimethylisoxazol-4-yl)-1H-pyrrolo[3,2-b]pyridin-1-yl)benzoic acid] gave an IC50 of 0.1 to 1000 nM. Molecule Cc1noc(C)c1-c1cnc2c(c1)c(-c1cncc(C(=O)O)n1)cn2[C@@H](C)c1ccccn1 [P-0106, (S)-6-(5-(3,5-dimethylisoxazol-4-yl)-1-(1-(pyridin-2-yl)ethyl)-1H-pyrrolo[2,3-b]pyridin-3-yl)pyrazine-2-carboxylic acid] has an IC50 of 1000 to 8000 nM. In the case of Cc1noc(C)c1-c1cnc2c(c1)c(-c1nccc(C(=O)O)n1)cn2[C@@H](C)c1ccccn1 [P-0107, (S)-2-(5-(3,5-dimethylisoxazol-4-yl)-1-(1-(pyridin-2-yl)ethyl)-1H-pyrrolo[2,3-b]pyridin-3-yl)pyrimidine-4-carboxylic acid], the IC50 is reported as 1000 to 8000 nM. CCOc1cc(C(=O)O)cc(F)c1-n1cc(CC2CCC2)c2ncc(-c3c(C)noc3C)cc21 [P-0108, 4-(3-(cyclobutylmethyl)-6-(3,5-dimethylisoxazol-4-yl)-1H-pyrrolo[3,2-b]pyridin-1-yl)-3-ethoxy-5-fluorobenzoic acid] was tested, and the IC50 was 0.1 to 1000 nM. CCOc1cc(C(=O)O)cc(OCC)c1-n1cc(CC2CCC2)c2ncc(-c3c(C)noc3C)cc21 [P-0109, 4-(3-(cyclobutylmethyl)-6-(3,5-dimethylisoxazol-4-yl)-1H-pyrrolo[3,2-b]pyridin-1-yl)-3,5-diethoxybenzoic acid] showed an IC50 of 0.1 to 1000 nM. Cc1noc(C)c1-c1cnc2c(CC3CCC3)cn(-c3ccc(C(=O)O)c4ccoc34)c2c1 [P-0110, 7-(3-(cyclobutylmethyl)-6-(3,5-dimethylisoxazol-4-yl)-1H-pyrrolo[3,2-b]pyridin-1-yl)benzofuran-4-carboxylic acid] was tested, and the IC50 was 0.1 to 1000 nM. With Cc1noc(C)c1-c1cnc2c(CC3CCC3)cn(-c3c(OC(C)C)cc(C(=O)O)cc3OC(C)C)c2c1 [P-0111, 4-(3-(cyclobutylmethyl)-6-(3,5-dimethylisoxazol-4-yl)-1H-pyrrolo[3,2-b]pyridin-1-yl)-3,5-diisopropoxybenzoic acid] the IC50 was 0.1 to 1000 nM. Work on Cc1noc(C)c1-c1cnc2c(c1)c(-c1ccc(C(=O)O)cc1OC(C)C)cn2[C@@H](C)c1ccccn1 [P-0112, (S)-4-(5-(3,5-dimethylisoxazol-4-yl)-1-(1-(pyridin-2-yl)ethyl)-1H-pyrrolo[2,3-b]pyridin-3-yl)-3-isopropoxybenzoic acid] yielded an IC50 of 0.1 to 1000 nM. With CCCOc1cc(C(=O)O)ccc1-c1cn([C@@H](C)c2ccccn2)c2ncc(-c3c(C)noc3C)cc12 [P-0113, (S)-4-(5-(3,5-dimethylisoxazol-4-yl)-1-(1-(pyridin-2-yl)ethyl)-1H-pyrrolo[2,3-b]pyridin-3-yl)-3-propoxybenzoic acid] the IC50 was 0.1 to 1000 nM. Molecule CCOc1cc(C(=O)O)ccc1-c1cn([C@@H](C)c2ccccn2)c2ncc(-c3c(C)noc3C)cc12 [P-0114, (S)-4-(5-(3,5-dimethylisoxazol-4-yl)-1-(1-(pyridin-2-yl)ethyl)-1H-pyrrolo[2,3-b]pyridin-3-yl)-3-ethoxybenzoic acid] has an IC50 of 0.1 to 1000 nM.
